Measurements published in ChEMBL document CHEMBL1137928, “Plasmepsin II inhibition and antiplasmodial activity of Primaquine-Statine 'double-drugs'” (Bioorg Med Chem Lett, 2004).

Assays:
Plasmodium falciparum [1] = assay: In vitro inhibitory activity against chloroquine-sensitive Plasmodium falciparum D10 infected human red blood cells; assay type: functional, organism-based
Plasmodium falciparum [2] = assay: In vitro inhibitory activity against chloroquine-resistant Plasmodium falciparum W-2 infected human erythrocytes; assay type: functional, organism-based
Plasmepsin II [3] = target: T1, Plasmepsin II (Plasmodium falciparum, UniProt P46925); assay: In vitro concentration required for inhibition of Plasmodium falciparum plasmepsin-2
Plasmepsin II [4] = target: T1, Plasmepsin II; assay: In vitro binding affinity towards Plasmodium falciparum plasmepsin-2
Plasmodium falciparum [5] = assay: Inhibition of Plasmodium falciparum; assay type: functional, organism-based
Plasmodium falciparum [6] = assay: In vitro inhibitory activity against chloroquine-resistant Plasmodium falciparum W2 infected human erythrocytes at 9 uM; assay type: functional
Plasmodium falciparum [7] = assay: In vitro inhibitory activity against chloroquine-sensitive Plasmodium falciparum D-10 infected human red blood cells at 9 uM; assay type: functional

T1 sequence (P46925 whole entry): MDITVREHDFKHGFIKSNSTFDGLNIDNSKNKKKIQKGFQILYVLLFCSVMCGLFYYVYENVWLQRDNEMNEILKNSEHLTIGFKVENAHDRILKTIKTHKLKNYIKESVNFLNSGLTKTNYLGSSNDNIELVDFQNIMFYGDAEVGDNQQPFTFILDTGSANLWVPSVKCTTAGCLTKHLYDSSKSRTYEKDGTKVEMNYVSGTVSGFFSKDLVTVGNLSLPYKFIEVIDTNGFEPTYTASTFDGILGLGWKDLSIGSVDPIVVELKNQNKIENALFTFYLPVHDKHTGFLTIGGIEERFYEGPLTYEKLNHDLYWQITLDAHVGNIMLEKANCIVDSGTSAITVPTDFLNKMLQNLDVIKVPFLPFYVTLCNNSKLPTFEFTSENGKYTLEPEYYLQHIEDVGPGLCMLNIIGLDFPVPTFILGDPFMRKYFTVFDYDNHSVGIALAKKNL

Row | SMILES | IC50 (Plasmodium falciparum [1]) [µM] | IC50 (Plasmodium falciparum [2]) [µM] | IC50 (Plasmepsin II [3]) [µM] | further results
1 | CCCCNC(=O)C[C@H](O)[C@H](CC(C)C)NC(=O)[C@@H](NC(=O)c1ccc(Oc2ccc(C(=O)N[C@H](CC(C)C)C(=O)N[C@H](CCCCN)C(=O)NCCCC(C)Nc3cc(OC)cc4cccnc34)cc2)cc1)[C@H](C)CC (stereo partly specified) | 0.4 | 0.7 | 0.00059 | 
2 | CCCCNC(=O)C[C@H](O)[C@H](CC(C)C)NC(=O)[C@@H](NC(=O)c1ccc2cc(C(=O)N[C@H](CC(C)C)C(=O)N[C@H](CCCCN)C(=O)NCCCC(C)Nc3cc(OC)cc4cccnc34)ccc2c1)[C@H](C)CC (stereo partly specified) | 6.2 | 4.7 | 0.00151 | 
3 | CCCCNC(=O)C[C@H](O)[C@H](Cc1ccccc1)NC(=O)[C@@H](NC(=O)COc1ccc2ccccc2c1)[C@@H](C)CC |  |  |  | Ki (Plasmepsin II [4]): 0.11 µM
4 | COc1cc(NC(C)CCCNC(=O)[C@@H](N)CCCCN)c2ncccc2c1 (stereo partly specified) |  |  | > 1 | IC50 (Plasmodium falciparum [5]): ~20 µM
5 | CCCCNC(=O)C[C@H](O)[C@H](CC(C)C)NC(=O)[C@@H](NC(=O)CCC(=O)N[C@@H](CC(C)C)C(=O)N[C@@H](CCCCN)C(=O)NCCCC(C)Nc1cc(OC)cc2cccnc12)[C@H](C)CC (stereo partly specified) |  |  | 0.396 | inhibition at 9 µM (Plasmodium falciparum [6]): 40%; inhibition at 9 µM (Plasmodium falciparum [7]): 20%
6 | CCCCNC(=O)C[C@H](O)[C@H](CC(C)C)NC(=O)[C@@H](NC(=O)COc1ccc2ccccc2c1)[C@@H](C)CC |  |  |  | Ki (Plasmepsin II [4]): 0.18 µM
7 | CCCCNC(=O)C[C@H](O)[C@H](CC(C)C)NC(=O)[C@@H](NC(=O)c1ccc(Oc2ccc(C(=O)N[C@@H](CC(C)C)C(=O)O)cc2)cc1)C(C)CC (stereo partly specified) |  |  | 0.123 | IC50 (Plasmodium falciparum [5]): ~17 µM
8 | CCCCNC(=O)C[C@H](O)[C@H](CC(C)C)NC(=O)[C@@H](NC(=O)c1ccc2cc(C(=O)OCCCC(=O)N[C@H](CC(C)C)C(=O)N[C@H](CCCCN)C(=O)NCCCC(C)Nc3cc(OC)cc4cccnc34)ccc2c1)[C@H](C)CC (stereo partly specified) | 3.3 | 1 | 0.0096 | 
9 | CCCCNC(=O)C[C@H](O)[C@H](CC(C)C)NC(=O)[C@@H](NC(=O)Cc1ccc(CC(=O)N[C@@H](CC(C)C)C(=O)N[C@@H](CCCCN)C(=O)NCCCC(C)Nc2cc(OC)cc3cccnc23)cc1)[C@H](C)CC (stereo partly specified) | 5.5 | 4.2 | 0.135 | 
